Source: PubChem BioAssay (NCI)
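Protocol summary: plate cells (96-well), add compound at 5 concentrations, incubate 48 h, interpolate endpoints linearly. TGI is the concentration that stops growth completely.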 Where a SMILES comes first, the peptide text is derived from it. The star is where a group is joined. OSu = O=C1CCC(=O)N1O*

Tests used:
Assay in all cases: growth of human tumour cells (NCI), 48 h
SN12C renal = test system: SN12C renal
HL-60(TB) leukemia = test system: HL-60(TB) leukemia
MOLT-4 leukemia = test system: MOLT-4 leukemia
NCI-H522 lung = test system: NCI-H522 lung
EKVX NSCLC = test system: EKVX NSCLC
BT-549 breast = test system: BT-549 breast
SF-268 CNS = test system: SF-268 CNS
UO-31 renal = test system: UO-31 renal
HOP-92 NSCLC = test system: HOP-92 NSCLC
RPMI-8226 leukemia = test system: RPMI-8226 leukemia
LOX IMVI melanoma = test system: LOX IMVI melanoma

Row | Structure (SMILES) | TGI (SN12C renal) [µM] | TGI (HL-60(TB) leukemia) [µM] | TGI (MOLT-4 leukemia) [µM] | TGI (NCI-H522 lung) [µM] | TGI (EKVX NSCLC) [µM] | TGI (BT-549 breast) [µM] | TGI (SF-268 CNS) [µM] | TGI (UO-31 renal) [µM] | TGI (HOP-92 NSCLC) [µM] | TGI (RPMI-8226 leukemia) [µM] | TGI (LOX IMVI melanoma) [µM]
1 | CCOC(=O)c1cc(-c2ccc(OC)cc2)c([N+](=O)[O-])n1C | > 10 | > 10 | > 10 | > 10 | > 10 | > 10 | > 10 | > 10 | > 10 | – | –
2 | CCOC(=O)c1cn2c(n1)sc1cc(F)ccc12 | > 100 | – | > 100 | > 100 | > 100 | > 100 | > 100 | > 100 | > 100 | > 100 | > 100
3 | CCOC(=O)C12OC(OCC)(CC1(OCC)OCC)C1(CC1)C2=O (stereo not drawn) | > 100 | – | > 100 | – | > 100 | > 100 | > 100 | > 100 | > 100 | – | > 100
4 | NCCCCC(NC(=O)C(N)Cc1ccc(O)cc1)C(=O)NC(CCCCN)C(=O)NC(CCCCN)C(=O)ON1C(=O)CCC1=O (stereo not drawn) (H-YKKK-OSu; configuration not given here) | > 100 | > 100 | > 100 | – | > 100 | > 100 | – | > 100 | > 100 | > 100 | –
5 | N#Cc1nc(-c2cnccn2)oc1N | > 100 | > 100 | > 100 | – | > 100 | – | > 100 | > 100 | > 100 | > 100 | > 100
6 | COc1cc(-c2cccs2)sc1-c1cccs1 | > 100 | 36.6 | > 100 | > 100 | > 100 | – | > 100 | > 100 | 78.9 | > 100 | > 100
7 | NC(Cc1ccccc1)C(=O)NC(Cc1ccccc1)NC(=O)C(Cc1c[nH]c2ccccc12)C(=O)O (stereo not drawn) | > 100 | > 100 | – | > 100 | > 100 | – | > 100 | > 100 | > 100 | > 100 | > 100
8 | COCCOCOC(CCCCO)c1cc(C)c(O[Si](C)(C)C(C)(C)C)c(C)c1 (stereo not drawn) | 8.73 | 6.02 | 13.2 | 6 | 22.6 | – | 20.4 | 17.2 | – | 11.6 | 18.7
9 | O=c1[nH]c(=O)n(C2COC(CO)C2O)cc1F (stereo not drawn) | > 100 | – | > 100 | > 100 | > 100 | > 100 | > 100 | > 100 | > 100 | > 100 | > 100
10 | CON(C)C(=O)C(C)N(Cc1ccccc1)Cc1ccccc1 (stereo not drawn) | – | > 100 | > 100 | – | > 100 | > 100 | > 100 | > 100 | > 100 | > 100 | –
11 | COc1cc2c(/C=C3/C(=O)Nc4cccc(Cl)c43)c(Cl)[nH]c2cc1C | 3.33 | 4.56 | 1.26 | 6.74 | – | 3.67 | 19.8 | 17.1 | 22.6 | 4.69 | 3.68
12 | CCCC/C=C/C=C/C=C/CCCCCCCC(=O)OCC(COC(=O)CCCCCCC/C=C/C1C=CC(CCCC)C(C(=O)O)C1C(=O)O)OC(=O)CCCCCCC/C=C/C=C/C=C/CCCC (stereo not drawn) (tested in a mixture with another compound) | 44.3 | 41.1 | 47.2 | – | 43.4 | – | 36.1 | 34.7 | 48.1 | 15 | 27.5
13 | Cc1ccc(S[C@@H](C)[C@@](O)(CF)CN(Cc2ccccc2)C(=O)C(F)(F)F)cc1 | 33.5 | 46.2 | – | > 100 | 64.9 | 46.5 | > 100 | 31 | > 100 | – | > 100
14 | CC(=O)CC1CCC(=O)/C=C/C(=O)OC(CC(C)=O)CCC(=O)/C=C/C(=O)O1 (stereo not drawn) | 15.3 | – | > 100 | 2.91 | 21.2 | 6.7 | 74 | 26.9 | 10.3 | > 100 | 35.1
15 | CCOC(=O)C(=[N+]=[N-])C(=O)CN1C(=O)c2ccccc2C1=O | > 100 | – | > 100 | > 100 | > 100 | > 100 | > 100 | > 100 | > 100 | – | –
16 | CSC(=O)c1sc(SC)[n+](-c2ccccc2)c1O | 38.8 | – | 41.4 | 24.8 | – | 29.4 | 31.2 | 31.4 | – | > 100 | 44.8
17 | COc1ccccc1CC(=O)C(O)(C(F)(F)F)C(F)(F)F | > 100 | > 100 | > 100 | > 100 | > 100 | – | > 100 | > 100 | > 100 | > 100 | > 100
18 | CC1(C)[C@@H](Cn2cc(I)c(=O)[nH]c2=O)CC[C@@]1(C)CO | > 100 | – | – | – | > 100 | – | > 100 | > 100 | > 100 | – | > 100
19 | C[N+]12C=CC=C1C(N1CCCC1)c1scc(-c3ccc(Br)cc3)c12 (stereo not drawn) | > 35.7 | – | > 65.3 | 9.89 | > 100 | 17.7 | 37 | > 100 | 42.1 | 28.9 | > 100
20 | Nc1nc(Cl)cc(OCC2(CO)CC=CC2)n1 | > 100 | > 100 | > 100 | > 100 | > 100 | – | > 100 | – | > 100 | > 100 | > 100
21 | Cc1ccc(Nc2nc(NNC(=O)Cc3ccccc3)nc(NNC(=O)c3ccncc3)n2)cc1 | > 10 | > 10 | > 10 | – | > 10 | > 10 | > 10 | > 10 | > 10 | > 10 | > 10
22 | O=C(Nc1c(O)[nH]c(=S)[nH]c1=O)c1ccccc1 | > 100 | > 100 | > 100 | > 100 | – | – | > 100 | > 100 | > 100 | > 100 | > 100
